Here are results for 88 compounds from a melting point compilation (Tetko et al.; mined from patent text by program, amines drawn as free bases though some values may be those of a salt).

Structures are written as SMILES.

As usually defined, the melting point is the temperature, or range, at which the solid turns liquid. `Cc1nc(N)nc(N)c1C=CC(C)(C)c1ccc(F)cc1` registered a melting point of 164 to 168 °C. In the case of `Nc1ccc(CCC(=O)N(c2ccccc2)c2ccccc2)cc1N` it was 122 to 123 °C; in that of `O=c1c2ccccc2nnn1CCCN1CCC(c2c[nH]c3ccccc23)CC1`, 60 °C; in that of `COc1ccc2c(c1)c(-c1cc3c(-c4cccnc4)ccnc3[nH]1)cn2C`, 248 to 249 °C. For the compound `CCOC(=O)C1=C(NC(=O)Nc2cc(C(=O)OC(C)C)c(F)cc2F)CCC1`, the melting point lay in the range of 149 to 151 °C. On to `O=c1[nH]cc(Cc2ccccc2)c2ccccc12`, for which the melting point was in the range of 217 to 220 °C. Consider `Cc1ccccc1C(=O)c1nc[nH]c1C`, for which the melting point lay within 165 to 166 °C.

The compound `CCCCc1ccc(C#Cc2ccc(C=O)cc2)cc1` displayed a melting point of 76 to 78 °C. Consider `Cc1c(C(=O)O)cnn1-c1cc(Cl)cc(Cl)c1`, for which the melting point lay in the range of 229 to 230 °C. As for `N#Cc1ccc(F)c(C(c2cc(N)ncc2Cl)S(=O)(=O)c2ccc(Cl)cc2)c1` (stereo not drawn), the figure is above 220 °C; as for `CCOc1cc2ncnc(Cl)c2cc1OCC`, 141 to 143 °C.

Turning to `COc1ccc(C(=O)Nc2ccc3ccc(OC)nc3n2)cc1`, the melting point turned out to be 115 °C. In the case of `CC(C)(C)OC(=O)c1ccccc1-c1ccc(CBr)cc1` it was 98 to 101 °C; in that of `CC(C)(C)[S@](=O)N1CCC[C@H]1c1cccs1`, 125 to 130 °C; in that of `N#CC=Cc1ccc(CBr)cc1`, 105 to 107 °C. In the case of `COc1cc(C)cc2c(=O)oc3c(c12)C(=O)c1cccc(O)c1C3=O` it was 282 to 292 °C; in that of `CCCCc1nc2cccc(C(=O)O)c2n1Cc1ccn2c(C(=O)O)c(-c3ccccc3)nc2c1`, 202 to 204 °C; in that of `CCCCCCCCCCCCCCCCCCOC(=O)c1cccc(NC(=O)NS(=O)(=O)c2ccc(C)cc2)c1`, 96 °C. As for `COc1ccc(-c2[nH]nc3c2C(=O)c2c(NC(=O)CN4CCNCC4)cccc2-3)cc1`, the figure is 277 °C. In the case of `Cc1ccccc1OS(=O)(=O)c1cc(S(N)(=O)=O)c(Oc2ccccc2)cc1Cl`, the melting point fell in the range of 157 to 159 °C. As for `Cc1cc2c(N)c([N+](=O)[O-])cnc2s1`, the figure is 238 to 240 °C; as for `Cc1cccc(NC(=O)N(C)Cc2cccc3c2C(=O)N(C2CCC(=O)NC2=O)C3=O)c1` (stereo not drawn), 212 to 215 °C. Consider `CCc1nn(Cc2cc(=O)[nH]c(N)n2)c(CC)c1Oc1cc(Cl)cc(Cl)c1`, for which the melting point is 238 to 240 °C. As for `CCOC(=O)C(=CNc1ccc(F)c(-c2ccncc2)n1)C(=O)OCC`, the figure is 140 to 141 °C; as for `Cc1nnc(-c2ccc3occ(-c4ccc(SCc5ccccc5)cc4)c3c2)o1`, 158 to 159 °C. Take `COCCN(C)S(=O)(=O)c1ccccc1Nc1nc(Nc2cc3c(cc2OC)CCN(CC(=O)N(C)C)CC3)ncc1Cl`: the melting point was in the range of 67 to 76 °C. Compound `Cc1nc2c(C)cccn2c1C1=NNC(=O)CO1` returned a melting point of 310 to 313 °C.

`NS(=O)(=O)c1c(C(F)F)nsc1OCC(F)(F)F`: the melting point is 102 to 104 °C. As to `Cc1ccccc1CC(C(=O)O)C(=O)O`, the melting point was 132 to 135 °C. Take `CCCN(CCCCc1c[nH]c2ccc(F)cc12)C1COc2c(C(N)=O)ccc(F)c2C1` (stereo not drawn): the melting point worked out at 116 °C. As for `CCn1nc(OCC(=O)C(C)(C)C)c(-c2ccccc2)c1-c1ccc(S(C)(=O)=O)cc1`, the figure is 158 to 161 °C; as for `CNc1cccc(OC)c1N`, 60 to 61 °C. As for `CCO[C@H]1CCN(C(=O)c2cc(-c3ccccc3)c(=O)n3c2-c2cc(Cl)ccc2CC3)C1`, the figure is 134 to 136 °C; as for `ON=Cc1ccc(OCc2coc(-c3ccc(C(F)(F)F)cc3)n2)cc1`, 155 to 160 °C.

`COc1cccc(N2CCN(S(=O)(=O)c3ccc(/C=C/C(=O)NO)cc3)CC2)c1` displayed a melting point of 199 to 200 °C. In the case of `CC(=O)OC1CSC(Oc2c(C#N)ccnc2C)C(OC(C)=O)C1OC(C)=O` (stereo not drawn) it was 109 to 113 °C; in that of `COc1ccccc1C(=O)c1cccc(C(=O)O)c1`, 170 to 172 °C. As for `Cn1c(N2CC3CC2CN3C(=O)OC(C)(C)C)nc(-c2ccncn2)cc1=O` (stereo not drawn), the figure is 198 to 200 °C; as for `CC1(C)COc2cc3c(cc21)C1(CO3)C(=O)N(Cc2ccc(C(F)(F)F)o2)c2ccccc21` (stereo not drawn), 155 to 160 °C. With `Cc1c(-c2cc(Nc3cc4n(n3)CCN(C)C4)c(=O)n(COP(=O)(OCCC#N)OCCC#N)n2)cccc1N1Cc2cc(C(C)(C)C)sc2C1=O`, the melting point lay in the range of 208 to 210 °C. In the case of `CCn1cc(C(=O)O)c(=O)c2cc(F)c(N3CCC(CNCCO)C3)c(F)c21` (stereo not drawn) it was 215 to 216 °C. Compound `C=Cc1ccc(COc2ccc(CCl)cc2)cc1` returned a melting point of 110 to 112 °C. Consider `Cc1oc(-c2ccccc2)nc1CN(C)Cc1ccc(C[C@@H](C(=O)O)n2cccc2)cc1`, for which the melting point was 133 to 135 °C.

Take `CC1(O)CC(=O)OC(C=Cc2cccc(OCc3ccccc3)c2)C1` (stereo not drawn): the melting point fell in the range of 122 to 124 °C. In the case of `C[C@H]1C[C@@](O)(c2cccc(S(=O)(=O)c3cc4c(cc3F)N(C)C(=O)CC4)c2)CCO1` it was 135 to 138 °C; in that of `O=Cc1ccc(Cl)cc1C1(c2ccccc2F)OCCO1`, 103 to 105 °C; in that of `C(#Cc1ccccn1)CCc1nc2ccccc2s1`, 98.5 to 99.4 °C.

Compound `CCOC(=O)Nc1ccc2c(c1)C(c1ccccc1Cl)S(=O)(=O)CCC(=O)N2` (stereo not drawn) registered a melting point of 295 to 296 °C. As to `Cc1cn2c(N)c(Cl)cc(C(=O)NCC3CCN(CC(=O)C(C)(C)C)CC3)c2n1`, the melting point came out at 198 °C. In the case of `C=C(C)C(=O)N1c2ccc(OC)cc2CC1C(=O)O` (stereo not drawn) it was 108 to 111 °C; in that of `CC(C)N(CC(O)(Cn1cncn1)c1ccc(Cl)cc1Cl)S(C)(=O)=O` (stereo not drawn), 132 to 133 °C. In the case of `CCCCC(=O)Nc1ccc(C(F)(F)F)c(-n2nc(CCCC)n(Cc3ccc(-c4ccccc4S(=O)(=O)NC(=O)OC(C)(C)C)cc3F)c2=O)c1` it was 179 to 182 °C; in that of `CC(O)c1cc2cc(OCC(=O)O)c(Cl)c(Cl)c2s1` (stereo not drawn), 173 to 175 °C.

As to `Cc1ccccc1-c1c(C(=O)N(C)Cc2cc(C(F)(F)F)cc(C(F)(F)F)c2)c(=O)oc2ccccc12`, the melting point fell in the range of 130 to 131 °C. In turn, `CCCCCCCCCCCCCCCCCCN(C)c1ccc(N)cc1C(=O)O` displayed a melting point of 81 to 83 °C. Compound `COc1ccc(CNC(=O)c2cn3c(=O)n(Cc4ccccc4)c(=O)c(C)c3s2)cc1` gave a melting point of 160 to 162 °C. As for `CCOC(=O)c1ncn(-c2nncs2)c1Cl`, the figure is 184 to 185 °C. Take `O=c1c2c(c1=O)NCCCN2`: the melting point stood at 335 °C. In the case of `CC1(C)SC2C(N)C(=O)N2C1NC(=O)OCC(Cl)(Cl)Cl` (stereo not drawn) it was 151 to 155 °C.

The compound `CC(C)Sc1cc2c(cc1Cl)N=C(CCl)NS2(=O)=O` came in with a melting point of 248 to 250 °C. As for `CCOC(=O)C(=O)Nc1nc(C)cs1`, the figure is 171 to 173 °C; as for `CCn1cc(CN(C(=O)C2CCCc3c(OCCCN(C)C)cccc32)c2ccc(C(C)C)cc2)cn1` (stereo not drawn), 143 °C.

Compound `N=C(N)c1ccc2cc(OC(=O)CC3CCCCC3)ccc2c1` displayed a melting point of 203 to 205 °C. `C=C(C)C(=O)OCCCCCCOc1ccc(C(=O)Oc2ccc(/C=C/C(=O)OC)cc2OC)cc1` displayed a melting point of 92 to 94 °C. In the case of `O=C(NNS(=O)(=O)c1c(Cl)cccc1Cl)c1ccc2oc3ccccc3c2c1` it was 202 to 203 °C; in that of `CCCCCCCCCCCCC/C=C1\C(=O)OCC1(CO)COC(C)=O` (stereo not drawn), 48 °C. As for `COC(=O)NCc1cc(C(C)=NO)ccc1Cl`, the figure is 124 to 127 °C; as for `CC(NS(=O)(=O)c1ccc([N+](=O)[O-])cc1[N+](=O)[O-])c1ccccc1` (stereo not drawn), 160 to 161 °C; as for `COC(=O)c1ccc(C(=O)Nc2cc3c4c(c2)CCCC4CCC3)cc1`, 217 to 218 °C. As for `COc1cccc(COCCC(C(=O)O)c2ccccc2)c1` (stereo not drawn), the figure is 112 to 114 °C. Consider `COc1ccc2c(CBr)c(Br)ccc2c1C(F)(F)F`, for which the melting point is 142 to 143 °C.

As to `CS(=O)(=O)N1CCN(c2cc3ccccc3c(=O)[nH]2)CC1`, the melting point was in the range of 257 to 259 °C. Regarding `Cc1ccc(C=Cc2ccccc2)cc1C`, the melting point is 76 °C. `COc1cc(OC)cc(C(C)N(C)CCCOc2ccc(S(=O)(=O)c3c(C(C)C)c4ccccc4n3C)cc2)c1` (stereo not drawn) returned a melting point of 156 °C.

Consider `Nc1ncccc1C(=O)NCC1CCN(C[C@H]2COc3ccc(Cl)cc3O2)CC1`, for which the melting point is 150 to 152 °C. In the case of `CC(C)CC(S)C(=O)NC(C)(C)C(=O)NC(Cc1ccc(-c2cccs2)nc1)C(=O)O` (stereo not drawn), the melting point lay within 194 to 196 °C. For the compound `O=C1Nc2cccc(Cl)c2C(=O)N2CC=C[C@@H]12`, the melting point is 250 °C. Turning to `CC(C)(C)c1ccc(S(=O)(=O)N2c3ccccc3C[C@H]2C(=O)NCc2ccc(CCC(=O)O)cc2)cc1`, the melting point is 80 to 85 °C.

In turn, `CCOC(=O)c1nc(C=Cc2cccc(C(F)(F)F)c2)oc1C` displayed a melting point of 103 to 104 °C. Compound `O=C(O)/C=C/C=C(c1cccc(C(F)(F)F)c1)c1cccc(C(F)(F)F)c1` yielded a melting point of 110 to 112 °C. In the case of `Cc1cc(C)cc(Sc2c(C(C)C)nc(C=NO)n2C)c1` it was 240 to 241 °C. As for `O=Cc1ccc(OCCNc2nc3ccccc3o2)cc1`, the figure is 103 to 106 °C; as for `CC(=O)NC1Cc2ccc(C(=O)CCl)cc2C1` (stereo not drawn), 173 to 174 °C; as for `CC(=S)N(C)Cc1ccc(F)cc1`, 99 to 104 °C. `Nc1nc2ccccc2n1CCCN1CCN(C(c2ccccc2)c2ccccc2)CC1` gave a melting point of 229 °C.

`CN(C)c1ncn2c1C[N+]([O-])=C(c1ccccc1F)c1cc(Cl)ccc1-2` gave a melting point of 203 to 206 °C.

Regarding `COc1cc2c(cc1OC)C(c1cccc(Cl)c1)=NNC(C)C2` (stereo not drawn), the melting point is 116 to 120 °C.

The compound `CC(=O)NCCSc1cc(N)c([N+](=O)[O-])cc1N` had a melting point of 162 °C.
